Where two headings read alike, the source gives them in different places.
Assays:
hP2X3 = biological target: T1, hP2X3 (Homo sapiens, UniProt P56373); experiment: Calcium uptake assay (P2X antagonist assay), P2X3 homomer; type: cell-based; details: hP2X3
T1 construct: expressed in transfected cells; host or cells: e.g. HEK293 or 1321N1
T1 sequence (P56373 1-397): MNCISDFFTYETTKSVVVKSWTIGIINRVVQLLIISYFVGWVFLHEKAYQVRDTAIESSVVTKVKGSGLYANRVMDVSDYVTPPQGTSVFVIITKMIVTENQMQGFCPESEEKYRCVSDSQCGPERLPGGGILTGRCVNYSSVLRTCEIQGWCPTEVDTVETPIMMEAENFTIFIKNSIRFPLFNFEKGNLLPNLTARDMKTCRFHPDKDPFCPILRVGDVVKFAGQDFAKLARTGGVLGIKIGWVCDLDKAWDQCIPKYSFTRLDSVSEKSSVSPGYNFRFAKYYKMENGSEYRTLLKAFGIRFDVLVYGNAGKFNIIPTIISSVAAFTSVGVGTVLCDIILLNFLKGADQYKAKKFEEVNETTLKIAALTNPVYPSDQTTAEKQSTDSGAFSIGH
How it was run: (§1)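 Stably or transiently transfected HEK293 or 1321N1 cells; the heteromer is made by adding P2X3 to a P2X2-stable line, with heteromer function isolated pharmacologically. The peak-minus-baseline FLIPR calcium signal gives % inhibition and a 4-parameter-logistic IC50.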

hP2X2/3H = biological target: T2, hP2X2/3H (Homo sapiens, UniProt P56373+Q9UBL9); experiment: Calcium uptake assay (P2X antagonist assay), P2X2/3 heteromer; type: cell-based; details: hP2X2/3H
T2 construct: expressed in transfected cells; host or cells: e.g. HEK293 or 1321N1
T2 sequence (Q9UBL9 1-471): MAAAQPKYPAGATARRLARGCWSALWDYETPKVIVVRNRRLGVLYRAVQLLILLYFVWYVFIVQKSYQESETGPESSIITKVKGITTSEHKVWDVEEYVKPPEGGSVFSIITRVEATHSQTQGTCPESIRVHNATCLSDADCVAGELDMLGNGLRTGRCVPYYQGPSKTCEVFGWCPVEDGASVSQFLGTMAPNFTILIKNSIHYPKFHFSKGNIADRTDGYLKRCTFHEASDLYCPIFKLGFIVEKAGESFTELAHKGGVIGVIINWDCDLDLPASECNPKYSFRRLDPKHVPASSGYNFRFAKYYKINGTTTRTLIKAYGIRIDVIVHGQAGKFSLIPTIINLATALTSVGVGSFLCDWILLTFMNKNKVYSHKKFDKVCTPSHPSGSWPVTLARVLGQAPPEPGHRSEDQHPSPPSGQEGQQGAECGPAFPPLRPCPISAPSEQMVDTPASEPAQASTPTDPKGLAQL
T2 sequence (P56373 1-397): T1 sequence (P56373 1-397)
How it was run: as §1

[1] = Ca influx (calcium uptake assay), read-out: IC50 hP2X3
[2] = Ca influx (calcium uptake assay), read-out: IC50 hP2X2/3H
[3] = calcium uptake assay, read-out: IC50 hP2X3 (nM), Ca Influx
[4] = calcium uptake assay, read-out: IC50 hP2X2/3H (nM), Ca Influx

Compound	IC50 (hP2X3; [1]) [nM]	IC50 (hP2X2/3H; [2]) [nM]	IC50 (hP2X3; [3]) [nM]	IC50 (hP2X2/3H; [4]) [nM]
CCCS(=O)(=O)c1cc(C(=O)NCc2ccc(C(F)(F)F)nc2)cc(-c2ccc(C)cc2)c1 [Compound 44]	–	–	100 to 500	100 to 500
Cc1ccc(-c2cc(S(=O)(=O)N3CCCC3)cc(C(=O)NCc3cnc(C)nc3)c2C)cc1 [Compound 67, 2,4′-Dimethyl-N-((2-methylpyrimidin-5-yl)methyl)-5-(pyrrolidin-1-ylsulfonyl)biphenyl-3-carboxamide]	–	–	< 100	> 1000
Cc1ccc(-c2cc(C(=O)N[C@H](C)c3cnc(C)nc3)cc(C(=O)N3CCCC3)c2)cc1 [Compound 52]	–	–	< 100	< 100
Cc1ccc(-c2cc(C(=O)N[C@@H](C)CO)cc(C(=O)N(C)CC(C)C)c2)cc1 [Compound 1, (S)—N-(1-Hydroxypropan-2-yl)-N-isobutyl-N,4′-dimethylbiphenyl-3,5-dicarboxamide]	–	–	< 100	100 to 500
Cc1ccc(-c2cc(C(=O)NCc3ccn4ccnc4c3)cc(C(=O)N(C)CC(C)C)c2)cc1 [Compound 11, N3-(Imidazo[1,2-a]pyridin-7-ylmethyl)-N5-isobutyl-N5,4′-dimethylbiphenyl-3,5-dicarboxamide]	–	–	< 100	100 to 500
Cc1ccc(-c2cc(C(=O)NCc3ccc(C)nc3)cc(C(=O)N(C)C3CCNCC3)c2)cc1 [Compound 167]	–	–	100 to 500	> 1000
Cc1ccc(-c2cc(C(=O)N[C@H](C)c3cnc(C)c(Cl)c3)cc(S(C)(=O)=O)c2)cc1 [Compound 149]	–	–	100 to 500	100 to 500
Cc1ccc(-c2cc(C(=O)NC(C)c3ccc(Cl)c(S(C)(=O)=O)c3)cc(S(C)(=O)=O)c2)cc1 (stereo not drawn) [Compound 26]	–	–	< 100	< 100
Cc1ccc(-c2cc(C(=O)NCc3ccc(C)nc3)cc(S(=O)(=O)N3CCCC3)c2)c(C#N)c1 [Compound 148]	–	–	< 100	> 1000
Cc1ccc(-c2cc(C(=O)NCc3ccc(C)nc3)cc(C(=O)N(C)CC3CCNCC3)c2)cc1 [Compound 169]	–	–	100 to 500	100 to 500

More lines, now with the values ahead:

IC50 (hP2X3; [1]) [nM]	IC50 (hP2X2/3H; [2]) [nM]	IC50 (hP2X3; [3]) [nM]	IC50 (hP2X2/3H; [4]) [nM]	Compound
< 100	< 100	–	–	Cc1ccc(-c2cc(C(=O)N[C@H](C)c3cnc(C)nc3)cc(C(O)c3nccs3)c2)nc1 (stereo partly drawn) [Compound 292]
–	–	< 100	< 100	Cc1ccc(-c2cc(C(=O)N[C@H](C)c3ccc(C)nc3)cc(S(C)(=O)=O)c2)cc1 [Compound 171]
< 100	< 100	–	–	Cc1ccc(-c2cc(C(=O)N[C@H](C)c3ccc(C)nc3)cc(C(O)c3nccs3)c2)cc1 (stereo partly drawn) [Compound 280, 5-(Hydroxy(thiazol-2-yl)methyl)-4′-methyl-N—((R)-1-(6-methylpyridin-3-yl)ethyl)biphenyl-3-carboxamide]
< 100	< 100	–	–	Cc1ccc(-c2cc(C(=O)NCc3ccc(C)nc3)cc(S(=O)(=O)C(C)C)c2)cc1 [Compound 199]
100 to 500	100 to 500	–	–	Cc1ccc(-c2cc(C(=O)NCc3ccc(C)nc3)cc(C(O)c3ccccc3)c2)cc1 (stereo not drawn) [Compound 228]
< 100	< 100	–	–	Cc1ccc(-c2cc(C(=O)N[C@H](C)c3ccc(C)nc3)cc(C(O)c3ccccn3)c2)nc1 (stereo partly drawn) [Compound 287]
< 100	100 to 500	–	–	Cc1ccc(-c2cc(Oc3nccs3)cc(C(=O)NCc3cnc(C)nc3)c2)cc1 [Compound 237]
< 100	100 to 500	–	–	Cc1ccc(-c2cc(C(=O)N[C@H](C)c3cnc(C)nc3)cc(C(O)CO)c2)nc1 (stereo partly drawn) [Compound 356]
< 100	< 100	–	–	Cc1ccc(-c2cc(C(=O)N[C@H](C)c3cnc(C)nc3)cc(C(O)c3cncn3C)c2)cc1 (stereo partly drawn) [Compound 354]
< 100	< 100	–	–	Cc1ccc(-c2cc(Oc3ncccn3)cc(C(=O)N[C@H](C)c3ccc(C)nc3)c2)cc1 [Compound 232, (R)-4′-Methyl-N-(1-(6-methylpyridin-3-yl)ethyl)-5-(pyrimidin-2-yloxy)biphenyl-3-carboxamide]
–	–	100 to 500	< 100	Cc1ccc(-c2cc(C(=O)N[C@H](C)c3ccc(C)nc3)cc(S(=O)(=O)CC(C)C)c2)cc1 [Compound 196]

Reference: patent US8946439B2, “Amide compounds, compositions and uses thereof” (Evotec AG, priority 2008, dated 2015)
